Source: ChEMBL document CHEMBL3044541, “Control of crown rot-causing fungal pathogens of banana by inorganic salts and a surfactant” (Crop Prot, 2007)
Active and inactive are the calls of the source. The calls are words filed in the database; no cut-off is given here.

Key:
[1] = test system: Colletotrichum musae; assay: Antifungal activity against Colletotrichum musae infected Cavendish banana fruit assessed as reduction in crown rot incubated for 15 min followed by compound washout measured after 2 weeks in absence of surfactant APSA 80 relative to control; format: functional; set-up: concentration or dose not given beside the values
[2] = test system: Fusarium verticillioides; assay: Antifungal activity against Fusarium verticillioides infected Cavendish banana fruit assessed as reduction in crown rot incubated for 15 min followed by compound washout measured after 1 week in presence of surfactant APSA 80 relative to control; format: functional; set-up: concentration or dose not given beside the values
[3] = test system: Colletotrichum musae; assay: Growth inhibition of Colletotrichum musae assessed as inhibition of mycelial growth up to 160 g/l incubated for 15 min followed by compound washout measured after 7 days in absence of surfactant APSA 80; format: functional
[4] = test system: Thielaviopsis paradoxa; assay: Antifungal activity against Ceratocystis paradoxa assessed as reduction in colony diameter at 10 to 160 g/l incubated for 15 min followed by compound washout measured after 7 days in presence of surfactant APSA 80 relative to control; format: functional; set-up: scale not given: the % may be the effect or the level left
[5] = test system: Lasiodiplodia theobromae; assay: Antifungal activity against Lasiodiplodia theobromae infected Cavendish banana fruit assessed as reduction in crown rot incubated for 15 min followed by compound washout measured after 2 weeks in absence of surfactant APSA 80 relative to control; format: functional; set-up: concentration or dose not given beside the values
[6] = test system: Colletotrichum musae; assay: Antifungal activity against Colletotrichum musae infected Cavendish banana fruit assessed as reduction in crown rot incubated for 15 min followed by compound washout measured after 1 week in presence of surfactant APSA 80 relative to control; format: functional; set-up: concentration or dose not given beside the values
[7] = test system: Fusarium verticillioides; assay: Antifungal activity against Fusarium verticillioides assessed as reduction in colony diameter at 10 to 160 g/l incubated for 15 min followed by compound washout measured after 7 days in presence of surfactant APSA 80 relative to control; format: functional; set-up: scale not given: the % may be the effect or the level left
[8] = test system: Thielaviopsis paradoxa; assay: Antifungal activity against Ceratocystis paradoxa infected Cavendish banana fruit assessed as reduction in crown rot incubated for 15 min followed by compound washout measured after 1 week in absence of surfactant APSA 80 relative to control; format: functional; set-up: concentration or dose not given beside the values
[9] = test system: Colletotrichum musae; assay: Antifungal activity against Colletotrichum musae assessed as reduction in colony diameter at 10 to 160 g/l incubated for 15 min followed by compound washout measured after 7 days in absence of surfactant APSA 80 relative to control; format: functional; set-up: scale not given: the % may be the effect or the level left
[10] = test system: Fusarium verticillioides; assay: Antifungal activity against Fusarium verticillioides infected Cavendish banana fruit assessed as reduction in crown rot incubated for 15 min followed by compound washout measured after 2 weeks in presence of surfactant APSA 80 relative to control; format: functional; set-up: concentration or dose not given beside the values
[11] = test system: Lasiodiplodia theobromae; assay: Antifungal activity against Lasiodiplodia theobromae infected Cavendish banana fruit assessed as reduction in crown rot incubated for 15 min followed by compound washout measured after 2 weeks in presence of surfactant APSA 80 relative to control; format: functional; set-up: concentration or dose not given beside the values
[12] = test system: Colletotrichum musae; assay: Antifungal activity against Colletotrichum musae assessed as reduction in colony diameter at 10 to 160 g/l incubated for 15 min followed by compound washout measured after 7 days in presence of surfactant APSA 80 relative to control; format: functional; set-up: scale not given: the % may be the effect or the level left
[13] = test system: Fusarium verticillioides; assay: Antifungal activity against Fusarium verticillioides infected Cavendish banana fruit assessed as reduction in crown rot incubated for 15 min followed by compound washout measured after 2 weeks in absence of surfactant APSA 80 relative to control; format: functional; set-up: concentration or dose not given beside the values
[14] = test system: Lasiodiplodia theobromae; assay: Antifungal activity against Lasiodiplodia theobromae infected Cavendish banana fruit assessed as reduction in crown rot incubated for 15 min followed by compound washout measured after 1 week in presence of surfactant APSA 80 relative to control; format: functional; set-up: concentration or dose not given beside the values
[15] = test system: Colletotrichum musae; assay: Antifungal activity against Colletotrichum musae infected Cavendish banana fruit assessed as reduction in crown rot incubated for 15 min followed by compound washout measured after 2 weeks in presence of surfactant APSA 80 relative to control; format: functional; set-up: concentration or dose not given beside the values
[16] = test system: Fusarium verticillioides; assay: Antifungal activity against Fusarium verticillioides infected Cavendish banana fruit assessed as reduction in crown rot incubated for 15 min followed by compound washout measured after 3 weeks in absence of surfactant APSA 80 relative to control; format: functional; set-up: concentration or dose not given beside the values; settings: pooled result: one value given for 4 cell lines, strains, targets or settings
[17] = test system: Thielaviopsis paradoxa; assay: Antifungal activity against Ceratocystis paradoxa infected Cavendish banana fruit assessed as reduction in crown rot incubated for 15 min followed by compound washout measured after 2 weeks in presence of surfactant APSA 80 relative to control; format: functional; set-up: concentration or dose not given beside the values
[18] = test system: Lasiodiplodia theobromae; assay: Antifungal activity against Lasiodiplodia theobromae assessed as reduction in colony diameter at 10 to 160 g/l incubated for 15 min followed by compound washout measured after 7 days in absence of surfactant APSA 80 relative to control; format: functional; set-up: scale not given: the % may be the effect or the level left
[19] = test system: Fusarium verticillioides; assay: Antifungal activity against Fusarium verticillioides infected Cavendish banana fruit assessed as reduction in crown rot incubated for 15 min followed by compound washout measured after 3 weeks in presence of surfactant APSA 80 relative to control; format: functional; set-up: concentration or dose not given beside the values; settings: pooled result: one value given for 4 cell lines, strains, targets or settings
[20] = test system: Fusarium verticillioides; assay: Antifungal activity against Fusarium verticillioides infected Cavendish banana fruit assessed as reduction in crown rot incubated for 15 min followed by compound washout measured after 1 week in absence of surfactant APSA 80 relative to control; format: functional; set-up: concentration or dose not given beside the values
[21] = test system: Colletotrichum musae; assay: Antifungal activity against Colletotrichum musae infected Cavendish banana fruit assessed as reduction in crown rot incubated for 15 min followed by compound washout measured after 1 week in absence of surfactant APSA 80 relative to control; format: functional; set-up: concentration or dose not given beside the values
[22] = test system: Thielaviopsis paradoxa; assay: Antifungal activity against Ceratocystis paradoxa infected Cavendish banana fruit assessed as reduction in crown rot incubated for 15 min followed by compound washout measured after 1 week in presence of surfactant APSA 80 relative to control; format: functional; set-up: concentration or dose not given beside the values
[23] = test system: Fusarium verticillioides; assay: Antifungal activity against Fusarium verticillioides assessed as reduction in colony diameter at 10 to 160 g/l incubated for 15 min followed by compound washout measured after 7 days in absence of surfactant APSA 80 relative to control; format: functional; set-up: scale not given: the % may be the effect or the level left
[24] = test system: Fusarium verticillioides; assay: Growth inhibition of Fusarium verticillioides assessed as inhibition of mycelial growth up to 160 g/l incubated for 15 min followed by compound washout measured after 7 days in absence of surfactant APSA 80; format: functional
[25] = test system: Lasiodiplodia theobromae; assay: Antifungal activity against Lasiodiplodia theobromae assessed as reduction in colony diameter at 10 to 160 g/l incubated for 15 min followed by compound washout measured after 7 days in presence of surfactant APSA 80 relative to control; format: functional; set-up: scale not given: the % may be the effect or the level left
[26] = test system: Thielaviopsis paradoxa; assay: Growth inhibition of Ceratocystis paradoxa assessed as inhibition of mycelial growth up to 160 g/l incubated for 15 min followed by compound washout measured after 7 days in presence of surfactant APSA 80; format: functional
[27] = test system: Thielaviopsis paradoxa; assay: Antifungal activity against Ceratocystis paradoxa assessed as reduction in colony diameter at 10 to 160 g/l incubated for 15 min followed by compound washout measured after 7 days in absence of surfactant APSA 80 relative to control; format: functional; set-up: scale not given: the % may be the effect or the level left
[28] = test system: Thielaviopsis paradoxa; assay: Antifungal activity against Ceratocystis paradoxa infected Cavendish banana fruit assessed as reduction in crown rot incubated for 15 min followed by compound washout measured after 2 weeks in absence of surfactant APSA 80 relative to control; format: functional; set-up: concentration or dose not given beside the values
[29] = test system: Lasiodiplodia theobromae; assay: Antifungal activity against Lasiodiplodia theobromae infected Cavendish banana fruit assessed as reduction in crown rot incubated for 15 min followed by compound washout measured after 1 week in absence of surfactant APSA 80 relative to control; format: functional; set-up: concentration or dose not given beside the values
[30] = test system: Musa acuminata AAA Group; assay: Phytotoxicity against Musa acuminata AAA Group (Cavendish banana) assessed as skin burn incubated for 15 min followed by compound washout measured after 1 to 3 weeks in presence of surfactant APSA 80 relative to control; format: organism-based; settings: in vivo
[31] = test system: Musa acuminata AAA Group; assay: Phytotoxicity against Musa acuminata AAA Group (Cavendish banana) assessed as discoloration incubated for 15 min followed by compound washout measured after 1 to 3 weeks in presence of surfactant APSA 80 relative to control; format: organism-based; settings: in vivo

| SMILES | Activity [1] | Activity [2] | Activity [3] | Activity [4] | Activity [5] | Activity [6] | Activity [7] | Activity [8] | Activity [9] | Activity [10] | Activity [11] | Activity [12] | Activity [13] | Activity [14] | Activity [15] | Activity [16] | Activity [17] | Activity [18] | Activity [19] | Activity [20] | other results |
| --- | --- | --- | --- | --- | --- | --- | --- | --- | --- | --- | --- | --- | --- | --- | --- | --- | --- | --- | --- | --- | --- |
| [Ca+2].[Cl-].[Cl-] [CALCIUM CHLORIDE] | 0% | 0% | inactive | 56% | 0% | 0% | 53% | 0% | 0% | 50% | 50% | 62% | 0% | 0% | 50% | 42% | 50% | 35% | 58% | 0% | Activity [21]: 0%; Activity [22]: 0%; Activity [23]: 5%; Activity [24]: inactive; Activity [25]: 87%; Activity [26]: inactive; Activity [27]: 28%; Activity [28]: 0%; Activity [29]: 0% |
| [Cl-].[Na+] [SODIUM CHLORIDE] | 0% | 0% | inactive | 84% | 0% | 0% | 79% | 0% | 83% | 10% | 10% | 93% | 0% | 0% | 10% | -5% | 10% | 90% | 0% | 0% | Activity [30]: Toxic; Activity [31]: Toxic; Activity [21]: 0%; Activity [22]: 0%; Activity [23]: 83%; Activity [24]: inactive; Activity [25]: 94%; Activity [26]: inactive; Activity [27]: 71%; Activity [28]: 0%; Activity [29]: 0% |
| [Na+].[O-]Cl [SODIUM HYPOCHLORITE] | 50% | 0% | 30 g/L | 67% | 50% | 0% | 51% | 0% | 13% | 50% | 50% | 78% | 50% | 0% | 50% | 61% | 50% | 40% | 47% | 0% | Activity [30]: Toxic; Activity [31]: Toxic; Activity [21]: 0%; Activity [22]: 0%; Activity [23]: 0%; Activity [24]: 50 g/L; Activity [25]: 92%; Activity [26]: 90 g/L; Activity [27]: 18%; Activity [28]: 50%; Activity [29]: 0% |
